Data: patent publication US20240409585A1, “MACROCYCLIC IMMUNOMODULATORS” (priority 2021, published 2024)
Numbered stars: 1 amine (or outer) side, 2 acyl side, 3 side chain; on linkers, the order of the positions; unused ones are H or OH. Bridge positions count the residues as written; N and C are the ends. Square brackets hold non-standard residues; d marks the D form. Peptide text beside a SMILES is read from it. * marks the point of attachment. ξ: configuration not given here. X15 = COC(=O)c1ccc(NS(=O)(=O)NC(=O)C[C@H](N[*:1])C(=O)[*:2])cc1; Phe(4-NO2) = N[C@@H](Cc1ccc([N+](=O)[O-])cc1)C(=O)O; Phe(3-CF3) = N[C@@H](Cc1cccc(C(F)(F)F)c1)C(=O)O; Ala(morpholin-4-yl) = N[C@@H](CN1CCOCC1)C(=O)O; Phe(4-CONH2) = NC(=O)c1ccc(C[C@H](N)C(=O)O)cc1; Phe(4-COOH) = N[C@@H](Cc1ccc(C(=O)O)cc1)C(=O)O; Bip = N[C@@H](Cc1ccc(-c2ccccc2)cc1)C(=O)O; Phe(3-CN) = N#Cc1cccc(C[C@H](N)C(=O)O)c1; Phe(3-Me) = Cc1cccc(C[C@H](N)C(=O)O)c1; d(aThr) = C[C@@H](O)[C@@H](N)C(=O)O; Gly(cPent) = N[C@H](C(=O)O)C1CCCC1; Val(3-OH) = CC(C)(O)[C@H](N)C(=O)O; aIle = CC[C@@H](C)[C@H](N)C(=O)O; 4Pal = N[C@@H](Cc1ccncc1)C(=O)O; Cha = N[C@@H](CC1CCCCC1)C(=O)O; Cit = NC(=O)NCCC[C@H](N)C(=O)O; Carboxymethyl = O=C(O)C*; NMeA = CN[C@@H](C)C(=O)O; Nle = CCCC[C@H](N)C(=O)O; Orn = NCCC[C@H](N)C(=O)O; Dab = NCC[C@H](N)C(=O)O; ξV = CC(C)C(N)C(=O)O

target: T1, PE-labeled human PD-L1-Ig binding to Jurkat cell line over-expressing human PD-1 (Jurkat-PD-1) (Homo sapiens, UniProt Q15116); assay: Jurkat-PD-1 Cell Binding High-Content Screening Assay (CBA): Method 1; conditions: Jurkat-PD-1 cells, PE-labeled PD-L1-Ig; μM; read-out: CBA Method 1 μM
T1 construct: expressed in transfected cells; host or cells: Jurkat
T1 sequence (Q15116 25-288): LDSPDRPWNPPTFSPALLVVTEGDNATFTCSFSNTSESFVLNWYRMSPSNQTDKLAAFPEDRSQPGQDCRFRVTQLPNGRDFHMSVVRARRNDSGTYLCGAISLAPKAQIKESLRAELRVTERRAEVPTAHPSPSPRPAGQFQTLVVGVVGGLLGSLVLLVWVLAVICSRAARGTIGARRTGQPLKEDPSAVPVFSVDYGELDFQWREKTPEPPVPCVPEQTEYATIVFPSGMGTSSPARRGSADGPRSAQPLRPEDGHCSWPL
Method: Phycoerythrin (PE) was covalently linked to the Ig epitope tag of human PD-L1-Ig and fluorescently-labeled PD-L1-Ig was used for binding studies with a Jurkat cell line over-expressing human PD-1 (Jurkat-PD-1). Briefly, 8×10^3 Jurkat-hPD-1 cells were seeded into 384 well plates in 20 μl of DMEM supplemented with 10% fetal calf serum. 100 nl of compound was added to cells followed by incubation at 37° C. for 2 hours. Then, 5 μl of PE-labeled PD-L1-Ig (20 nM final), diluted in DMEM supplemented with 10% fetal calf serum. […] Data was collected and processed using a Cell Insight NXT High Content Imager and associated software.

With `COC(=O)c1ccc(NS(=O)(=O)NC(=O)C[C@@H]2NC(=O)[C@H](Cc3ccc(C(=O)O)cc3)NC(=O)[C@H](CN3CCOCC3)NC(=O)CSC[C@@H](C(=O)N[C@@H](CCN)C(N)=O)NC(=O)[C@H](CCCN)NC(=O)[C@H](C(C)C)NC(=O)[C@H](CC3CCCCC3)NC(=O)[C@H](CCN)NC(=O)[C@@H](CC(C)C)NC(=O)[C@H](C)N(C)C(=O)[C@H](CCC(N)=O)NC(=O)[C@H](Cc3ccc(-c4ccccc4)cc3)NC(=O)[C@H](Cc3ccc(C(=O)O)cc3)NC(=O)[C@H](Cc3cccc(C(F)(F)F)c3)NC2=O)cc1` [Example 5083] ({CH2CO}-[Ala(morpholin-4-yl)][Phe(4-COOH)][X15][Phe(3-CF3)][Phe(4-COOH)][Bip]Q[NMeA][dL][Dab][Cha]V[Orn]C[Dab]-NH2; thioether N-14) the IC50 was 0.355 µM.

same assay, conditions: Jurkat-hPD-1 cells, PE-labeled PD-L1-Ig 20 nM final; read-out: Jurkat HPDL1 PD1 IC50 (uM) (Method 1)

In order of falling IC50:
1. CC(C)C[C@@H]1NC(=O)[C@H](Cc2c[nH]c3ccccc23)NC(=O)[C@H](CC(=O)O)NC(=O)[C@H](Cc2ccc(O)cc2)NC(=O)[C@H](CC(N)=O)NC(=O)CSC[C@@H](C(=O)NCC(N)=O)NC(=O)[C@H](CO)NC(=O)[C@H](C(C)C)NC(=O)[C@H](CC(C)C)NC(=O)[C@H](CC(N)=O)NC(=O)[C@H](CC(N)=O)NC(=O)[C@H](C)N(C)C(=O)[C@H](C(C)C)NC(=O)[C@H](Cc2ccc(-c3ccccc3)cc2)NC1=O [Compound 1822] ({CH2CO}-NYDWL[Bip]V[NMeA]NNLVSCG-NH2; thioether N-14)  0.58 µM
2. Cc1cccc(C[C@@H]2NC(=O)[C@H](CC(=O)O)NC(=O)[C@H](Cc3ccc(OCC(=O)O)cc3)NC(=O)[C@H](CCCNC(=N)N)NC(=O)CSC[C@@H](C(N)=O)NC(=O)[C@H]([C@@H](C)O)NC(=O)[C@H](C(C)C)NC(=O)[C@H](CC3CCCCC3)NC(=O)[C@H](CCN)NC(=O)[C@@H](CC(C)C)NC(=O)[C@H](C)N(C)C(=O)[C@H](CCCN)NC(=O)[C@H](Cc3ccc(-c4ccccc4)cc3)NC(=O)[C@H](Cc3ccc(O)cc3)NC2=O)c1 [Compound 1868] ({CH2CO}-RY(Carboxymethyl)D[Phe(3-Me)]Y[Bip][Orn][NMeA][dL][Dab][Cha]VTC-NH2; thioether N-14)  0.17 µM
3. CC(C)C[C@@H]1NC(=O)[C@H](CCN)NC(=O)[C@@H](CC(C)C)NC(=O)[C@H](C)N(C)C(=O)[C@H](CCCNC(=N)N)NC(=O)[C@H](Cc2ccc(-c3ccccc3)cc2)NC(=O)[C@H](C(C)C)NC(=O)[C@H](Cc2c[nH]c3ccccc23)NC(=O)[C@H](CC(=O)O)NC(=O)[C@H](Cc2ccc([N+](=O)[O-])cc2)NC(=O)[C@H](CC(N)=O)NC(=O)CSC[C@@H](C(=O)N[C@@H](C)C(N)=O)NC(=O)[C@H]([C@@H](C)O)NC(=O)[C@H](C(C)C)NC1=O [Compound 1188] ({CH2CO}-N[Phe(4-NO2)]DWV[Bip]R[NMeA][dL][Dab]LVTCA-NH2; thioether N-14)  0.09 µM
4. CCCC[C@@H]1NC(=O)[C@H](CCCNC(=N)N)NC(=O)[C@@H](CC(C)C)NC(=O)[C@H](C)N(C)C(=O)[C@H](C(C)C)NC(=O)[C@H](Cc2ccc(-c3ccccc3)cc2)NC(=O)[C@H](C(C)C)NC(=O)[C@H](Cc2c[nH]c3ccccc23)NC(=O)[C@H](CC(=O)O)NC(=O)[C@H](Cc2ccc(O)cc2)NC(=O)[C@H](CC(N)=O)NC(=O)CSC[C@@H](C(=O)N[C@@H](C)C(N)=O)NC(=O)[C@H]([C@@H](C)O)NC(=O)[C@H](C(C)C)NC1=O [Compound 1293] ({CH2CO}-NYDWV[Bip]V[NMeA][dL]R[Nle]VTCA-NH2; thioether N-14)  0.07 µM
5. Cc1cccc(C[C@@H]2NC(=O)[C@H](CC(=O)O)NC(=O)[C@H](Cc3ccc(OCC(=O)O)cc3)NC(=O)[C@H](CC(N)=O)NC(=O)CSC[C@@H](C(N)=O)NC(=O)[C@H](CCCN)NC(=O)[C@H](C(C)C)NC(=O)[C@H](CC3CCCCC3)NC(=O)[C@H](CCN)NC(=O)[C@@H](CC(C)C)NC(=O)[C@H](C)N(C)C(=O)[C@H](Cc3ccc(OCC(=O)O)cc3)NC(=O)[C@H](Cc3ccc(-c4ccccc4)cc3)NC(=O)[C@H](Cc3ccc(OCC(=O)O)cc3)NC2=O)c1 [Compound 1668] ({CH2CO}-NY(Carboxymethyl)D[Phe(3-Me)]Y(Carboxymethyl)[Bip]Y(Carboxymethyl)[NMeA][dL][Dab][Cha]V[Orn]C-NH2; thioether N-14)  0.05 µM
6. CC[C@@H](C)[C@@H]1NC(=O)[C@H](Cc2ccc(-c3ccccc3)cc2)NC(=O)[C@H](C2CCCC2)NC(=O)[C@H](Cc2c[nH]c3ccccc23)NC(=O)[C@H](CC(=O)O)NC(=O)[C@H](Cc2ccc(C(=O)O)cc2)NC(=O)[C@H](Cc2ccc(OCC(=O)O)cc2)NC(=O)CSC[C@@H](C(=O)N[C@@H](CCCCN)C(N)=O)NC(=O)[C@H](CO)NC(=O)C(C(C)C)NC(=O)[C@H](CC(C)C)NC(=O)[C@H](CC(N)=O)NC(=O)[C@@H](CC(C)C)NC(=O)[C@H](C)N(C)C1=O (stereo partly drawn) [Compound 2103] ({CH2CO}-Y(Carboxymethyl)[Phe(4-COOH)]DW[Gly(cPent)][Bip][aIle][NMeA][dL]NL[ξV]SCK-NH2; thioether N-14)  0.04 µM
7. CC(C)C[C@@H]1NC(=O)[C@H](Cc2c[nH]c3ccccc23)NC(=O)[C@H](CC(=O)O)NC(=O)[C@H](Cc2ccc(O)cc2)NC(=O)[C@H](Cc2ccccc2)NC(=O)CSC[C@@H](C(=O)NCC(N)=O)NC(=O)[C@H](CO)NC(=O)[C@H](C(C)C)NC(=O)[C@H](CC(C)C)NC(=O)[C@H](CC(N)=O)NC(=O)[C@@H]([C@@H](C)O)NC(=O)[C@H](C)N(C)C(=O)[C@H](C(C)C)NC(=O)[C@H](Cc2ccc(-c3ccccc3)cc2)NC1=O [Compound 1752] ({CH2CO}-FYDWL[Bip]V[NMeA][d(aThr)]NLVSCG-NH2; thioether N-14)  0.03 µM
8. Cc1cccc(C[C@@H]2NC(=O)[C@H](CC(=O)O)NC(=O)[C@H](Cc3ccc(OCC(=O)O)cc3)NC(=O)[C@H](Cc3ccncc3)NC(=O)CSC[C@@H](C(N)=O)NC(=O)[C@H](CCC(N)=O)NC(=O)[C@H](C(C)C)NC(=O)[C@H](CC3CCCCC3)NC(=O)[C@H](CCN)NC(=O)[C@@H](CC(C)C)NC(=O)[C@H](C)N(C)C(=O)[C@H](Cc3ccc(OCC(=O)O)cc3)NC(=O)[C@H](Cc3ccc(-c4ccccc4)cc3)NC(=O)[C@H](Cc3ccc(OCC(=O)O)cc3)NC2=O)c1 [Compound 1659] ({CH2CO}-[4Pal]Y(Carboxymethyl)D[Phe(3-Me)]Y(Carboxymethyl)[Bip]Y(Carboxymethyl)[NMeA][dL][Dab][Cha]VQC-NH2; thioether N-14)  0.03 µM
9. CC(=O)NCC[C@H](NC(=O)[C@@H]1CSCC(=O)N[C@@H](Cc2ccncc2)C(=O)N[C@@H](Cc2ccc(OCC(=O)O)cc2)C(=O)N[C@@H](CC(=O)O)C(=O)N[C@@H](Cc2cccc(C)c2)C(=O)N[C@@H](Cc2ccc(C(=O)O)cc2)C(=O)N[C@@H](Cc2ccc(-c3ccccc3)cc2)C(=O)N[C@@H](Cc2ccc(OCC(=O)O)cc2)C(=O)N(C)[C@@H](C)C(=O)N[C@H](CC(C)C)C(=O)N[C@@H](CCN)C(=O)N[C@@H](CC2CCCCC2)C(=O)N[C@@H](C(C)(C)O)C(=O)N[C@@H](Cc2cnc[nH]2)C(=O)N1)C(N)=O [Compound 2162] ({CH2CO}-[4Pal]Y(Carboxymethyl)D[Phe(3-Me)][Phe(4-COOH)][Bip]Y(Carboxymethyl)[NMeA][dL][Dab][Cha][Val(3-OH)]HC[Dab](Ac)-NH2; thioether N-14)  0.02 µM
10. Cc1cccc(C[C@@H]2NC(=O)[C@H](CC(=O)O)NC(=O)[C@H](Cc3ccc(OCC(=O)O)cc3)NC(=O)[C@H](Cc3ccncc3)NC(=O)CSC[C@@H](C(=O)N[C@@H](CO)C(N)=O)NC(=O)[C@H](CO)NC(=O)[C@H](C(C)(C)O)NC(=O)[C@H](CC3CCCCC3)NC(=O)[C@H](CCN)NC(=O)[C@@H](CC(C)C)NC(=O)[C@H](C)N(C)C(=O)[C@H](Cc3ccc(C(=O)O)cc3)NC(=O)[C@H](Cc3ccc(-c4ccccc4)cc3)NC(=O)[C@H](Cc3ccc(C(N)=O)cc3)NC2=O)c1 [Compound 2180] ({CH2CO}-[4Pal]Y(Carboxymethyl)D[Phe(3-Me)][Phe(4-CONH2)][Bip][Phe(4-COOH)][NMeA][dL][Dab][Cha][Val(3-OH)]SCS-NH2; thioether N-14)  0.02 µM
11. CC(C)C[C@@H]1NC(=O)[C@H](CC(N)=O)NC(=O)[C@@H](CC(C)C)NC(=O)[C@H](C)N(C)C(=O)[C@H](CCCNC(N)=O)NC(=O)[C@H](Cc2ccc(-c3ccccc3)cc2)NC(=O)[C@H](C(C)C)NC(=O)[C@H](Cc2c[nH]c3ccccc23)NC(=O)[C@H](CC(=O)O)NC(=O)[C@H](Cc2ccc(O)cc2)NC(=O)[C@H](Cc2ccccc2)NC(=O)CSC[C@@H](C(=O)N[C@@H](C)C(=O)N[C@@H](CCN)C(=O)O)NC(=O)[C@H](CO)NC(=O)[C@H](C(C)C)NC1=O [Compound 2000] ({CH2CO}-FYDWV[Bip][Cit][NMeA][dL]NLVSCA[Dab]-OH; thioether N-14)  0.02 µM
12. CC(C)C[C@@H]1NC(=O)[C@H](Cc2c[nH]c3ccccc23)NC(=O)[C@H](CC(=O)O)NC(=O)[C@H](Cc2cccc(C#N)c2)NC(=O)[C@H](Cc2ccccc2)NC(=O)CSC[C@@H](C(=O)N[C@@H](C)C(N)=O)NC(=O)[C@H](CO)NC(=O)[C@H](C(C)C)NC(=O)[C@H](CC(C)C)NC(=O)[C@H](CC(N)=O)NC(=O)[C@@H](C)NC(=O)[C@H](C)N(C)C(=O)[C@H](C(C)C)NC(=O)[C@H](Cc2ccc(-c3ccccc3)cc2)NC1=O [Compound 1723] ({CH2CO}-F[Phe(3-CN)]DWL[Bip]V[NMeA][dA]NLVSCA-NH2; thioether N-14)  0.01 µM
13. CC[C@H](C)[C@@H]1NC(=O)[C@H](Cc2ccc(-c3ccccc3)cc2)NC(=O)[C@H](C(C)C)NC(=O)[C@H](Cc2c[nH]c3ccccc23)NC(=O)[C@H](CC(=O)O)NC(=O)[C@H](Cc2ccc(OCC(=O)O)cc2)NC(=O)[C@H](Cc2ccc(OCC(=O)O)cc2)NC(=O)CSC[C@@H](C(=O)N[C@@H](C)C(N)=O)NC(=O)[C@H]([C@@H](C)O)NC(=O)[C@H](C(C)C)NC(=O)[C@H](CC(C)C)NC(=O)[C@H](CCN)NC(=O)[C@@H](CC(C)C)NC(=O)[C@H](C)N(C)C1=O [Compound 1568] ({CH2CO}-Y(Carboxymethyl)Y(Carboxymethyl)DWV[Bip]I[NMeA][dL][Dab]LVTCA-NH2; thioether N-14)  0.01 µM
